# In PubChem BioAssay (NCI):
#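 Grown in 96-well plates, cells were treated for 48 hours with each compound at five concentrations. Insufficient inhibition: endpoint recorded as highest concentration tested. TGI: total growth inhibition.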
# Key:
# Assay in all cases: DTP human tumour cell line panel, 48 h
# K-562 leukemia = test system: K-562 leukemia
# HOP-92 NSCLC = test system: HOP-92 NSCLC
# UO-31 renal = test system: UO-31 renal
# HOP-18 NSCLC = test system: HOP-18 NSCLC
# KM20L2 colon = test system: KM20L2 colon
# HCT-116 colon = test system: HCT-116 colon
# HT29 colon = test system: HT29 colon
# SK-MEL-28 melanoma = test system: SK-MEL-28 melanoma
# EKVX NSCLC = test system: EKVX NSCLC
# SF-295 CNS = test system: SF-295 CNS
# SNB-78 CNS = test system: SNB-78 CNS
# OVCAR-5 ovarian = test system: OVCAR-5 ovarian
# MALME-3M melanoma = test system: MALME-3M melanoma
# A498 renal = test system: A498 renal
# SNB-19 CNS = test system: SNB-19 CNS
# NCI-H226 lung = test system: NCI-H226 lung
# OVCAR-8 ovarian = test system: OVCAR-8 ovarian
# SN12C renal = test system: SN12C renal
# SK-OV-3 ovarian = test system: SK-OV-3 ovarian
# SF-539 CNS = test system: SF-539 CNS
# KM12 colon = test system: KM12 colon
# COLO 205 colon = test system: COLO 205 colon
# NCI-H460 lung = test system: NCI-H460 lung
# NCI-H23 lung = test system: NCI-H23 lung
# SR leukemia = test system: SR leukemia
# OVCAR-3 ovarian = test system: OVCAR-3 ovarian
# SK-MEL-5 melanoma = test system: SK-MEL-5 melanoma
# RXF 393 renal = test system: RXF 393 renal
# SW-620 colon = test system: SW-620 colon
# HL-60(TB) leukemia = test system: HL-60(TB) leukemia
# CCRF-CEM leukemia = test system: CCRF-CEM leukemia
# IGROV1 ovarian = test system: IGROV1 ovarian
# DLD-1 colon = test system: DLD-1 colon
# MOLT-4 leukemia = test system: MOLT-4 leukemia
# NCI-H522 lung = test system: NCI-H522 lung
# CAKI-1 renal = test system: CAKI-1 renal
# ACHN renal = test system: ACHN renal
# RXF-631 renal = test system: RXF-631 renal
# SF-268 CNS = test system: SF-268 CNS
# DMS 114 small cell lung = test system: DMS 114 small cell lung
# U251 CNS = test system: U251 CNS
# OVCAR-4 ovarian = test system: OVCAR-4 ovarian
# UACC-257 melanoma = test system: UACC-257 melanoma
# SNB-75 CNS = test system: SNB-75 CNS
# HOP-62 NSCLC = test system: HOP-62 NSCLC
# A549 NSCLC = test system: A549 NSCLC
# LXFL 529 NSCLC = test system: LXFL 529 NSCLC
# DMS 273 small cell lung = test system: DMS 273 small cell lung
# SK-MEL-2 melanoma = test system: SK-MEL-2 melanoma
# 786-0 renal = test system: 786-0 renal
# M14 melanoma = test system: M14 melanoma
# XF 498 CNS = test system: XF 498 CNS
# HCT-15 colon = test system: HCT-15 colon
# TK-10 renal = test system: TK-10 renal
# M19-MEL melanoma = test system: M19-MEL melanoma
# UACC-62 melanoma = test system: UACC-62 melanoma
# HCC-2998 colon = test system: HCC-2998 colon
# RPMI-8226 leukemia = test system: RPMI-8226 leukemia
# LOX IMVI melanoma = test system: LOX IMVI melanoma
compound,measurement,setting,value
COc1ccc2c(c1)[n+]([O-])c(-c1ccc([N+](=O)[O-])cc1)c(N)[n+]2[O-],TGI,K-562 leukemia,> 100 µM
same,TGI,HOP-92 NSCLC,> 100 µM
same,TGI,UO-31 renal,> 100 µM
same,TGI,HOP-18 NSCLC,> 100 µM
same,TGI,KM20L2 colon,> 100 µM
same,TGI,HCT-116 colon,> 100 µM
same,TGI,HT29 colon,> 100 µM
same,TGI,SK-MEL-28 melanoma,> 100 µM
same,TGI,EKVX NSCLC,> 100 µM
same,TGI,SF-295 CNS,> 100 µM
same,TGI,SNB-78 CNS,> 100 µM
same,TGI,OVCAR-5 ovarian,> 100 µM
same,TGI,MALME-3M melanoma,> 100 µM
same,TGI,A498 renal,> 100 µM
same,TGI,SNB-19 CNS,> 100 µM
same,TGI,NCI-H226 lung,> 100 µM
same,TGI,OVCAR-8 ovarian,> 100 µM
same,TGI,SN12C renal,> 100 µM
same,TGI,SK-OV-3 ovarian,> 100 µM
same,TGI,SF-539 CNS,> 100 µM
same,TGI,KM12 colon,> 100 µM
same,TGI,COLO 205 colon,> 100 µM
same,TGI,NCI-H460 lung,> 100 µM
same,TGI,NCI-H23 lung,> 100 µM
same,TGI,SR leukemia,> 100 µM
same,TGI,OVCAR-3 ovarian,> 100 µM
same,TGI,SK-MEL-5 melanoma,> 100 µM
same,TGI,RXF 393 renal,> 100 µM
same,TGI,SW-620 colon,> 100 µM
same,TGI,HL-60(TB) leukemia,> 100 µM
same,TGI,CCRF-CEM leukemia,> 100 µM
same,TGI,IGROV1 ovarian,> 100 µM
same,TGI,DLD-1 colon,> 100 µM
same,TGI,MOLT-4 leukemia,> 100 µM
same,TGI,NCI-H522 lung,32.9 µM
same,TGI,CAKI-1 renal,> 100 µM
same,TGI,ACHN renal,> 100 µM
same,TGI,RXF-631 renal,> 100 µM
same,TGI,SF-268 CNS,> 100 µM
same,TGI,DMS 114 small cell lung,> 100 µM
same,TGI,U251 CNS,> 100 µM
same,TGI,OVCAR-4 ovarian,> 100 µM
same,TGI,UACC-257 melanoma,> 100 µM
same,TGI,SNB-75 CNS,> 100 µM
same,TGI,HOP-62 NSCLC,> 100 µM
same,TGI,A549 NSCLC,> 100 µM
same,TGI,LXFL 529 NSCLC,> 100 µM
same,TGI,DMS 273 small cell lung,> 100 µM
same,TGI,SK-MEL-2 melanoma,> 100 µM
same,TGI,786-0 renal,> 100 µM
same,TGI,M14 melanoma,> 100 µM
CN1C(=O)CCC2[C@@H]3CC=C4C[C@@H](O)CC[C@]4(C)C3CC[C@@]21C (stereo partly specified),TGI,XF 498 CNS,> 100 µM
same,TGI,K-562 leukemia,> 100 µM
same,TGI,UO-31 renal,> 100 µM
same,TGI,KM20L2 colon,> 100 µM
same,TGI,HCT-116 colon,> 100 µM
same,TGI,HT29 colon,> 100 µM
same,TGI,SK-MEL-28 melanoma,> 100 µM
same,TGI,EKVX NSCLC,> 100 µM
same,TGI,SF-295 CNS,> 100 µM
same,TGI,SNB-78 CNS,> 100 µM
same,TGI,OVCAR-5 ovarian,> 100 µM
same,TGI,MALME-3M melanoma,> 100 µM
same,TGI,HCT-15 colon,> 100 µM
same,TGI,A498 renal,> 100 µM
same,TGI,NCI-H226 lung,> 100 µM
same,TGI,TK-10 renal,> 100 µM
same,TGI,M19-MEL melanoma,> 100 µM
same,TGI,OVCAR-8 ovarian,> 100 µM
same,TGI,SK-OV-3 ovarian,> 100 µM
same,TGI,SF-539 CNS,> 100 µM
same,TGI,KM12 colon,> 100 µM
same,TGI,NCI-H460 lung,> 100 µM
same,TGI,NCI-H23 lung,> 100 µM
same,TGI,OVCAR-3 ovarian,> 100 µM
same,TGI,SK-MEL-5 melanoma,50.3 µM
same,TGI,RXF 393 renal,> 100 µM
same,TGI,SW-620 colon,> 100 µM
same,TGI,HL-60(TB) leukemia,56 µM
same,TGI,CCRF-CEM leukemia,> 100 µM
same,TGI,IGROV1 ovarian,> 100 µM
same,TGI,UACC-62 melanoma,> 100 µM
same,TGI,DLD-1 colon,> 100 µM
same,TGI,MOLT-4 leukemia,69.6 µM
same,TGI,CAKI-1 renal,> 100 µM
same,TGI,ACHN renal,> 100 µM
same,TGI,RXF-631 renal,> 100 µM
same,TGI,HCC-2998 colon,> 100 µM
same,TGI,DMS 114 small cell lung,> 100 µM
same,TGI,U251 CNS,> 100 µM
same,TGI,OVCAR-4 ovarian,> 100 µM
same,TGI,RPMI-8226 leukemia,> 100 µM
same,TGI,UACC-257 melanoma,> 100 µM
same,TGI,SNB-75 CNS,> 100 µM
same,TGI,HOP-62 NSCLC,> 100 µM
same,TGI,A549 NSCLC,> 100 µM
same,TGI,LXFL 529 NSCLC,> 100 µM
same,TGI,DMS 273 small cell lung,> 100 µM
same,TGI,SK-MEL-2 melanoma,> 100 µM
same,TGI,786-0 renal,> 100 µM
same,TGI,M14 melanoma,> 100 µM
COC(=O)[C@H](Cc1ccccc1)NC(=O)/C(=C/C(C)C)NC(=O)[C@H](CCSC)NC=O,TGI,XF 498 CNS,> 100 µM
same,TGI,K-562 leukemia,> 100 µM
same,TGI,HOP-92 NSCLC,> 100 µM
same,TGI,UO-31 renal,> 100 µM
same,TGI,HOP-18 NSCLC,> 100 µM
same,TGI,KM20L2 colon,> 100 µM
same,TGI,HCT-116 colon,> 100 µM
same,TGI,HT29 colon,> 100 µM
same,TGI,SK-MEL-28 melanoma,> 100 µM
same,TGI,EKVX NSCLC,> 100 µM
same,TGI,SF-295 CNS,> 100 µM
same,TGI,HCT-15 colon,> 100 µM
same,TGI,A498 renal,> 100 µM
same,TGI,SNB-19 CNS,> 100 µM
same,TGI,NCI-H226 lung,> 100 µM
same,TGI,TK-10 renal,> 100 µM
same,TGI,M19-MEL melanoma,> 100 µM
same,TGI,OVCAR-8 ovarian,> 100 µM
same,TGI,SN12C renal,> 100 µM
same,TGI,SK-OV-3 ovarian,> 100 µM
same,TGI,SF-539 CNS,> 100 µM
same,TGI,KM12 colon,> 100 µM
same,TGI,LOX IMVI melanoma,> 100 µM
same,TGI,COLO 205 colon,> 100 µM
same,TGI,NCI-H460 lung,> 100 µM
same,TGI,NCI-H23 lung,> 100 µM
same,TGI,SR leukemia,> 100 µM
same,TGI,OVCAR-3 ovarian,> 100 µM
same,TGI,SK-MEL-5 melanoma,> 100 µM
same,TGI,RXF 393 renal,> 100 µM
same,TGI,SW-620 colon,> 100 µM
same,TGI,HL-60(TB) leukemia,> 100 µM
same,TGI,CCRF-CEM leukemia,> 100 µM
same,TGI,IGROV1 ovarian,> 100 µM
same,TGI,UACC-62 melanoma,> 100 µM
same,TGI,DLD-1 colon,> 100 µM
same,TGI,MOLT-4 leukemia,> 100 µM
same,TGI,NCI-H522 lung,> 100 µM
same,TGI,CAKI-1 renal,> 100 µM
same,TGI,ACHN renal,> 100 µM
same,TGI,HCC-2998 colon,> 100 µM
same,TGI,SF-268 CNS,> 100 µM
same,TGI,DMS 114 small cell lung,> 100 µM
same,TGI,U251 CNS,> 100 µM
same,TGI,OVCAR-4 ovarian,> 100 µM
same,TGI,RPMI-8226 leukemia,> 100 µM
same,TGI,UACC-257 melanoma,> 100 µM
same,TGI,SNB-75 CNS,> 100 µM
same,TGI,HOP-62 NSCLC,> 100 µM
same,TGI,A549 NSCLC,> 100 µM
same,TGI,LXFL 529 NSCLC,> 100 µM
same,TGI,DMS 273 small cell lung,> 100 µM
same,TGI,SK-MEL-2 melanoma,> 100 µM
same,TGI,786-0 renal,> 100 µM
same,TGI,M14 melanoma,> 100 µM
